Data on one molecule can be found in patent US10912752B2, “Methods and compositions for reducing ocular discomfort” (Brien Holden Vision Institute Limited, priority 2012, dated 2021).

The structures appear in SMILES notation.

The test system of data set [1] is HCLE cells. Kind of data set: MTT mitochondrial activity after hyperosmolar medium. Type of data set: cell-based, human. To be noted: 5 or 10 mM, 500 mOsm, 16 h, vs hyperosmotic control. The method, then: (§1) 500 mOsm and exposure time (16 h) to be the most informative under which to observe hyperosmolality induced cellular responses of HCLE (results not shown). Thus, in the present study, a hyperosmotic medium of 500 mOsm and exposure time of 16 h were used throughout. Hyperosmolar media were prepared by the addition of NaCl to the medium. Medium osmolarity was measured using a Vapro 5520 vapour pressure osmometer (Wescor, Logan, Utah). Subconfluent cells were exposed to hyperosmolar media in the presence or absence of betaine (5 or 10 mM). Mitochondrial and proliferation activities for cell viability; TNF-α production; caspase activity and Annexin V/PI staining for apoptosis; and cellular shrinkage were monitored as detailed below.
(§2) MTT viability assay kit was used to measure cell viability (above). CyQUANT cell proliferation assay kit (Invitrogen-Molecular probe, Eugene, Oreg.) was used to determine the cell number. Culture supernatants were removed and centrifuged at 1500 rpm for 10 min to harvest any detached cells from the supernatant. Remaining cells were rinsed once with PBS. […] Fluorescence, indicating cell viability, was measured using SpectraFluor Plus microplate reader (Tecan, Männedorf, Switzerland); 485 nm for excitation and 535 nm for emission maxima.

Data set [2] concerns HCLE cells. Kind of data set: Annexin V/PI/Hoechst staining, confocal microscopy, damaged cells. In kind it is cell-based, human. To be noted: 500 mOsm + 10 mM, 16 h. The method, then: Cells undergoing apoptosis or necrosis were identified using Alexa Fluor 488 annexin V/Dead cell apoptosis assay (Invitrogen-Molecular probe) with some modifications. Cells were seeded at 6.5×10^4 cells mL^−1 in 75 cm^2 cell culture flask and incubated overnight. Once the cells reached 70%-80% confluence, they were subjected to different osmolarity treatments for 16 hours. Supernatants were removed and retained for collection of non-adherent cells. Adherent cells were rinsed twice with PBS and detached using 0.05% trypsin. The culture supernatant and trypsin digests were pelleted, rinsed twice in PBS, and combined during resuspenison in annexin-binding buffer. Five microlitres of Alexa Fluor 488 annexin V, 12.5 μg mL^−1 of Hoechst 33342 and 1 μg mL^−1 of propidium iodide (PI) were added to 100 μL of cell suspension containing approximately 1×10^5 cells and incubated at room temperature for 15 minutes. Cells were washed with 200 μL of annexin-binding buffer and deposited onto coverslips. […] Cells stained with annexin V, PI or Hoechst for apoptotic, necrotic or total cells, respectively, were quantified for each image using ImageJ (http://rsbweb.nih.gov/ij/; National Institutes of Health, Bethesda, Md.) to obtain an average value for each treatment.

Data set [3] in a line: Effect on final osmolarity of culture medium (vapour pressure osmometer). Type of data set: physicochemical. Particulars: up to 10 mM; results not shown. The protocol: as §1
In data set [4] the test system is HCLE cells. Description: CyQUANT cell number after hyperosmolar medium. Particulars: 5 or 10 mM, 500 mOsm, 16 h, vs hyperosmotic control. In kind it is cell-based, human. The protocol:
as §1, §2

In the case of `C[N+](C)(C)CC(=O)[O-]` [betaine, trimethylglycine], in the data set on HCLE cells [1], the “increase in mitochondrial activity” value is recorded as 17%. In addition, the “percentage of damaged cells (of the total cells)” value with HCLE cells [2] amounted to 7.5%. The “effect on the final osmolarity of the medium” value in data set [3] is “minimal effect”. In the data set with HCLE cells [4], the “increase in cell numbers” value is 12%.
